Laboratory results published in paper PMC9629851, “Cardiac myosin filaments are directly regulated by calcium” (The Journal of General Physiology, 2022).

Assays:
[1] = target: T1, β-cardiac full-length myosin (Bos taurus, UniProt Q9BE39); test: basal ATPase, enzymatically coupled assay on purified myosin; type: biochemical
T1 construct: gene MYH7; full-length myosin in synthetic thick filaments; also HMM and S1-subfragment

[2] = target: T2, Human β-cardiac myosin (2-hep and 25-hep HMM) (Homo sapiens, UniProt P12883); test: basal ATPase assay of recombinant HMM; type: biochemical
T2 construct: gene MYH7
T2 sequence (P12883 1-855): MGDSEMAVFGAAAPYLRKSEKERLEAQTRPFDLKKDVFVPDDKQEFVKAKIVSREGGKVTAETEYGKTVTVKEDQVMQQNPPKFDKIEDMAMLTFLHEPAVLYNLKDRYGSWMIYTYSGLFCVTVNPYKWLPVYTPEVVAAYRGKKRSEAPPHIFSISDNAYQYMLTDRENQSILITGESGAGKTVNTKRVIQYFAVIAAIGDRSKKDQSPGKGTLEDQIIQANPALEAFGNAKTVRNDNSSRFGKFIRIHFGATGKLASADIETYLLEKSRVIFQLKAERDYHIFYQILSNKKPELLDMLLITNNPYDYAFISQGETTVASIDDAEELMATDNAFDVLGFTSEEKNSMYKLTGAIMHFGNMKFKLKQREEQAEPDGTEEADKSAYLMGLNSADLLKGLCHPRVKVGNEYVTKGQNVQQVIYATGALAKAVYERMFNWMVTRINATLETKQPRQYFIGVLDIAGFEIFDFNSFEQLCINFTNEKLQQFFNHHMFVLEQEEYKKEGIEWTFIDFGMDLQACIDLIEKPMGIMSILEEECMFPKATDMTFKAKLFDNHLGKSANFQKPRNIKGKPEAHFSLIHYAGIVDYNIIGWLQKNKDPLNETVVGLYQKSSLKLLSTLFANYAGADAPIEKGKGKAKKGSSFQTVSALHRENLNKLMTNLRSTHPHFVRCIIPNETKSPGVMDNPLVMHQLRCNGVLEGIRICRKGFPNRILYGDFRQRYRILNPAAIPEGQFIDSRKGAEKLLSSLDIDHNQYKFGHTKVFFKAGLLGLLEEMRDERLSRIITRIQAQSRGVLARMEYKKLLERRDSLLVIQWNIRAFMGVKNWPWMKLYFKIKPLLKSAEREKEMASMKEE

T1 sequence (Q9BE39 whole entry, the tested form may be a part): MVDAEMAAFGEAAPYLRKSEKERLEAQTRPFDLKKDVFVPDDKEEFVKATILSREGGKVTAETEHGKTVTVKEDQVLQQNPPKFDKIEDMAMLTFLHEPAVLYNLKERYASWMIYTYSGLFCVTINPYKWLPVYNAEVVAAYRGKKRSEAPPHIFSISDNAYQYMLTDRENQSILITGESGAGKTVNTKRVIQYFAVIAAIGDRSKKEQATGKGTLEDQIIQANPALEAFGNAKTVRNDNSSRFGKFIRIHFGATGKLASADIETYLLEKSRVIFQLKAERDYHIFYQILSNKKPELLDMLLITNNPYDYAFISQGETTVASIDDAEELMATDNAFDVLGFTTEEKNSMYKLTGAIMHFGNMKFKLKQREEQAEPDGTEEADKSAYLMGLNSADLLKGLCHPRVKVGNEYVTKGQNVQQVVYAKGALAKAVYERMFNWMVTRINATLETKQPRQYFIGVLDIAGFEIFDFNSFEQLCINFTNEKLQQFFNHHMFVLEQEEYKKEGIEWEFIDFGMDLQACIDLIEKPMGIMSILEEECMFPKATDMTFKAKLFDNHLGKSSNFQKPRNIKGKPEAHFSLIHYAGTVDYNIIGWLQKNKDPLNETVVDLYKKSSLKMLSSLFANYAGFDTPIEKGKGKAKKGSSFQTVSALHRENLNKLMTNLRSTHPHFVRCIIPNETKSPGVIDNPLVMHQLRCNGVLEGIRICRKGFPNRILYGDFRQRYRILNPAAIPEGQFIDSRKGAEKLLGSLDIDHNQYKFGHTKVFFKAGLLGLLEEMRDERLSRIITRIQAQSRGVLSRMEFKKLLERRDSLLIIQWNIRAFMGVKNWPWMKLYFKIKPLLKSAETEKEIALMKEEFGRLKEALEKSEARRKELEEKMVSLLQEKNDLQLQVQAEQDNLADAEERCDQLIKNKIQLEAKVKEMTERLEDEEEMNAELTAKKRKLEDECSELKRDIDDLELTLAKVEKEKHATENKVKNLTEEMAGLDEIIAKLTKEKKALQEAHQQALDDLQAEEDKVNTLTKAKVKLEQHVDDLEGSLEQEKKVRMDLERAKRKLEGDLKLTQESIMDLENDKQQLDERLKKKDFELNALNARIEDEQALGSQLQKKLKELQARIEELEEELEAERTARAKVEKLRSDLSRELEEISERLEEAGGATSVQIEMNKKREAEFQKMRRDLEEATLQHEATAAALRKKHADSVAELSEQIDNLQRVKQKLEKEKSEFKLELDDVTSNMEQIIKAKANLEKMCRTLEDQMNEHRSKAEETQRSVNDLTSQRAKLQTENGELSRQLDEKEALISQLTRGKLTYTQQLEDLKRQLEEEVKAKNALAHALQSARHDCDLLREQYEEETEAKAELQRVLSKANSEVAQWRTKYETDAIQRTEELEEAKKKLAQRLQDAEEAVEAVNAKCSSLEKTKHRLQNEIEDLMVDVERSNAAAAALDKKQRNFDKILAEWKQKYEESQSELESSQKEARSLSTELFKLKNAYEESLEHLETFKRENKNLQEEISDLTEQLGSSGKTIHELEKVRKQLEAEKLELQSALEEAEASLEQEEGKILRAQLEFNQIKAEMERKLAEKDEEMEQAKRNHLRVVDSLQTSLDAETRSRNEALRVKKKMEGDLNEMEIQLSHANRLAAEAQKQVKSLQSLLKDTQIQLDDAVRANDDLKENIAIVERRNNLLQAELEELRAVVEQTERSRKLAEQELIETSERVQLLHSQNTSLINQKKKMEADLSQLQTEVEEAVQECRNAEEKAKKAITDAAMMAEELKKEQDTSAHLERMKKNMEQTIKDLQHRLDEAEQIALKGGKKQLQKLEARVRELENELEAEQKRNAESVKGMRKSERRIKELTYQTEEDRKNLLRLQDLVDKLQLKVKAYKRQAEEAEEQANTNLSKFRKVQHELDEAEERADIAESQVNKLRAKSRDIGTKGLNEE

Nc1ncnc2c1ncn2[C@@H]1O[C@H](COP(=O)(O)OP(=O)(O)OP(=O)(O)O)[C@@H](O)[C@H]1O [ATP]
Raw values at pCa 8 [1]: 0.03 ± 0.01 s^−1
Raw values at pCa 8 [2]: 0.1 ± 0.05 s^−1
